“Also recorded” adds a separate entry of the source. Where two headings read alike, the source gives them in different places. Where a SMILES comes first, the peptide text is derived from it. [ ]: non-standard residue; d: D form. Ahx = NCCCCCC(=O)O
Columns and labels:
Aβ42 Globulomer = molecular target: T1, Aβ42 Globulomer (Homo sapiens, UniProt P05067); assay: Misfolded Protein Assay, LoD and capture in CSF: globulomer; type: binding
T1 construct: beta amyloid (1-42) was monomerized with incubation in hexafluoroisopropanol
T1 sequence (P05067 672-713 limits assumed): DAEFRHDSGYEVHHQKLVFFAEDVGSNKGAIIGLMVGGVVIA
Experimental: (§1) The Ab42 aggregates were prepared as previously described: fibrils were prepared per Stine et al (JBC 2003, 278, p11612), globulomers were prepared per Barghorn et al (J Neurology 2005 95 p834), ADDLs were prepared per Lambert et al (PNAS 1998, 95 p6448), and ASPDs were prepared per Noguchi et al (JBC 2009 284 p32895). Normal CSF was pooled from clinically characterized non-demented patient CSF samples. AD CSF was pooled from clinically-characterized AD patient samples. Alzheimer's Disease Brain Homogenate (ADBH) was prepared by sonication of clinically diagnosed AD patient brain samples in 0.2M.sucrose (1:10 w/v).
(§2) For the capture assay (Misfolded Protein Assay), aliquots of the beads (30 ul) were added to wells of a 96 well plate, followed by 125 ul of sample in 80:20 CSF:TBSTT. The plate was sealed and incubated for 1 h at 37 C with shaking. The plate was washed with TBST and the residual buffer removed. A denaturing solution (0.1 N NaOH) was added to each well and the plate heated to 80 C. for 30 min with shaking. After cooling the plate to RT, a neutralizing buffer (0.12 M NaH2PO3-0.4% TW20,) was added and the plate shaken briefly at RT. The assay was analyzed using the triplex Mesoscale Discovery ELISA kit for Aβ. The Aβ in the samples eluted from the beads were detected per the manufacturer's protocol.
(§3) For the Limit of Detection (LoD) studies, serial dilutions of each aggregate were spiked into CSF and were assayed per the protocol described above. The LoD was defined as 2× over background levels.
(§4) This pattern minors the capture selectivity observed when these species are tested with 3 ul of PSR1 beads and 1 ng/mL of aggregate.

Aβ42 ADDL = Aβ42 ADDL (Homo sapiens, UniProt P05067); assay: Misfolded Protein Assay, LoD and capture in CSF: ADDL; type: binding
Aβ42 ADDL, sequence (P05067 672-713 limits assumed): as above
Experimental: as §1, §2, §3, §4

Aβ42 ASPD = molecular target: T2, Aβ42 ASPD (Homo sapiens, UniProt P05067); assay: Misfolded Protein Assay, LoD and capture in CSF: ASPD; type: binding
T2 construct: The Ab42 aggregates were prepared as previously described
T2 sequence (P05067 672-713 limits assumed): as above
Experimental: as §1, §2, §3, §4

Aβ42 Fibrils = molecular target: T3, Aβ42 Fibrils (Homo sapiens, UniProt P05067); assay: Misfolded Protein Assay, LoD and capture in CSF: fibrils; type: binding
T3 construct: The Ab42 aggregates were prepared as previously described
T3 sequence (P05067 672-713 limits assumed): as above
Experimental: as §1, §2, §3, §4

[1] = test system: Alzheimer's Disease Brain Homogenate (ADBH) Aβ aggregates; assay: Misfolded Protein Assay, LoD in CSF: ADBH; type: binding, human; conditions: spiked into CSF; LoD = 2× over background
Experimental: as §1
as §2, with “protocol. […]” for “protocol.”

[2] = molecular target: T4, Aβ40 aggregates in AD CSF (Homo sapiens, UniProt P05067); assay: Discrimination between AD and normal CSF; type: binding; conditions: FIG. 39
T4 construct: from tissue; host or cells: pooled cerebrospinal fluid (normal or AD)
T4 sequence (P05067 672-711 limits assumed): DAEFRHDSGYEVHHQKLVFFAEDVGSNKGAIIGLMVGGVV
Experimental: as §1, §2
For discriminating between AD and normal CSF, pooled normal CSF or pooled Alzheimer's Disease patient CSF, were assayed per the protocol described above.

Abeta 42 globulomer = Abeta 42 globulomer (Homo sapiens, UniProt P05067); assay: NMPA with detergent washing after PSR1 pulldown: globulomer detection; type: binding
Abeta 42 globulomer, sequence (P05067 672-713 limits assumed): as the sequence (P05067 672-713 limits assumed) above

normal CSF Aβ42 = molecular target: T5, normal CSF Aβ42 (Homo sapiens, UniProt P05067); assay: NMPA with detergent washing: background from unspiked CSF, Abeta42; type: binding; conditions: for detection of normal CSF Aβ42 (background): 1% detergent wash after PSR1 pulldown, FIG. 35
T5 construct: reduced the detection of normal CSF Aβ42 to the background levels; from tissue; host or cells: pooled normal cerebrospinal fluid
T5 sequence (P05067 672-713 limits assumed): as above
Experimental: Second, two neutral detergents, polyethylene glycol sorbitan monolaurate (available as TWEEN 20 from Sigma-Aldrich, St. Louis, Mo.) and n-tetradecyl-N,N-dimethyl-3-ammonio-1-propanesulfonate (available as ZWITTERGENT 3-14 from EMI) Chemicals, Gibbstown, N.J.) were used to treat the globulomer-spiked CSF samples that had been contacted with PSR1 beads. For each assay, a mixture of 30 μl of PSR1 beads (coated at about 7-12 nmol PSR1 ligand/mg DYNAL beads, which were used in this example and in the following examples unless otherwise stated) and 70 μl of 1×TBSTT was immediately pipetted into each well on the pulldown plate. The liquid was removed on a magnetic separator. Fifty micro liters of 5×TBSTT was added to each well. The beads were suspended by briefly shaking at 750 rpm. Next […] of TBSTT or CSF sample without globulomer was added to each well. The pulldown plate was sealed and incubated at 37° C. for 1 hour with shaking at 500 rpm. After incubation, the beads were washed 8 times with TBST on the plate washer. After the plate wash, residual TBST buffer was removed from the beads on the magnetic separator. The beads were then incubated with 100 μl of either TBS, 1% Tween20 or 1% Zwittergent 3-14 for 30 minutes at room temperature at 750 rpm, (followed by an additional 8 washes with TBST on the plate washer. After removing residual TBST on the magnetic separator, 20 μl of denaturing solution, typically 0.1-0.15 N NaOH, was added to the beads. The plate was covered with an aluminum foil plate sealer and incubated at 80° C. for 30 minutes with shaking at 750 rpm. After incubation, the plate was cooled to room temperature and twenty micro liters of neutralizing solution, typically 0.12-0.18 M NaH2PO4+0.4% Tween20) was added into each well and the plate was incubated at room temperature for 5 minutes with shaking at 750 rpm. […] MSD Abeta Triplex Assay was preformed according to the manufacturer's instructions.
(§5) A summary of the assay results and calculated signal/noise is shown below in Table 17.

normal CSF Aβ40 = molecular target: T6, normal CSF Aβ40 (Homo sapiens, UniProt P05067); assay: NMPA with detergent washing: background from CSF, Abeta40; type: binding; conditions: 1% detergent wash after PSR1 pulldown; FIG. 35
T6 construct: from tissue; host or cells: pooled cerebrospinal fluid (normal or AD)
T6 sequence (P05067 672-711 limits assumed): as the sequence (P05067 672-711 limits assumed) above
Experimental: Second, two neutral detergents, polyethylene glycol sorbitan monolaurate (available as TWEEN 20 from Sigma-Aldrich, St. Louis, Mo.) and n-tetradecyl-N,N-dimethyl-3-ammonio-1-propanesulfonate (available as ZWITTERGENT 3-14 from EMI) Chemicals, Gibbstown, N.J.) were used to treat the globulomer-spiked CSF samples that had been contacted with PSR1 beads. For each assay, a mixture of 30 μl of PSR1 beads (coated at about 7-12 nmol PSR1 ligand/mg DYNAL beads, which were used in this example and in the following examples unless otherwise stated) and 70 μl of 1×TBSTT was immediately pipetted into each well on the pulldown plate. The liquid was removed on a magnetic separator. Fifty micro liters of 5×TBSTT was added to each well. The beads were suspended by briefly shaking at 750 rpm. Next […] of TBSTT or CSF sample without globulomer was added to each well. The pulldown plate was sealed and incubated at 37° C. for 1 hour with shaking at 500 rpm. After incubation, the beads were washed 8 times with TBST on the plate washer. After the plate wash, residual TBST buffer was removed from the beads on the magnetic separator. […]
as §5

[3] = 3 ul of beads and 1 ng/mL of aggregate
[4] = spiked into CSF, LoD = 2× over background
[5] = CSF, PSR1 beads treated with detergent post capture
[6] = pulldown CSF, PSR1 beads washed with 1% detergent

## CC(=O)NC(Cc1ccccc1)C(=O)NC(CCCCN)C(=O)NC(Cc1ccccc1)C(=O)NC(CCCCN)C(=O)NC(CCCCN)C(=O)NC(CCCCN)C(=O)NCCCCCC(=O)NCCCCCC(=O)NC(CS)C(N)=O (stereo not drawn) [Ac-FKFKKK, Ac-FKFKKK-Ahx-Ahx-Cys-NH2] (Ac-FKFKKK[Ahx][Ahx]C-NH2; configuration not given here)
Aβ42 Globulomer; [3]
  capture of Globulomer: 3409
Aβ42 Globulomer; [4]
  LoD: 75 to 120 pg/mL
Aβ42 ADDL; [3]
  capture of ADDL: 1241
Aβ42 ADDL; [4]
  LoD: 300 pg/mL
Aβ42 ASPD; [3]
  capture of ASPD: 1321
Aβ42 ASPD; [4]
  LoD: 300 pg/mL
Aβ42 Fibrils; [3]
  capture of Fibril: 4138
Aβ42 Fibrils; [4]
  LoD: 100 pg/mL
[1]
  LoD: <10 pg/mL
[2]
  Aβ40 signal in pooled AD CSF relative to normal pool: higher Aβ40 signal in positive pooled AD CSF relative to unmatched normal pool; also recorded: largest change in signal

## n-Tetradecyl-N,N-dimethyl-3-ammonio-1-propanesulfonate [ZW3-14]
Abeta 42 globulomer
  signal/noise of globulomer detection: improved the signal/noise of globulomer detection; also recorded: improved the signal/noise ratio for Abeta 42 globulomer detection more significantly
Abeta 42 globulomer; 0.5 ng/mL vs 0 ng/mL globulomer
  S/N Abeta 42 globulomer-spiked/unspiked: 7.7
Abeta 42 globulomer; Abeta 42 RLU at 0.5 ng/mL over average Abeta 40 RLU
  S/N Abeta 42 globulomer-spiked/Abeta 40: 2.2
Abeta 42 globulomer; [5]
  Abeta 42 RLU, 0.5 ng/mL Abeta 42 globulomer, Average: 842.0 RLU
Abeta 42 globulomer; [6]
  LoD of globulomer (Cal): 2.33 pg/mL
  LoD of globulomer, RLU (S/N = 2): 199 RLU
  S/N at 25.3 pg/mL globulomer: 10.3
Normal CSF Aβ42
  detection of normal CSF Aβ42 (background): reduced the detection of normal CSF Aβ42 to the background levels observed when PSR1 is incubated with TBSTT buffer alone
Normal CSF Aβ42; [5]
  Abeta 42 RLU, 0 ng/mL Abeta 42 globulomer, Average: 110.0 RLU
Normal CSF Aβ40
  detection of normal CSF Aβ40 (background): reduced the detection of normal CSF Aβ40 significantly

## Polyethylene glycol sorbitan monolaurate [TW20]
Abeta 42 globulomer
  LoD of globulomer (Cal): 2.52 pg/mL
  LoD of globulomer, RLU (S/N = 2): 211 RLU
  S/N at 25.3 pg/mL globulomer: 11.0
  signal/noise of globulomer detection: improved the signal/noise of globulomer detection
Normal CSF Aβ42
  detection of normal CSF Aβ42 (background): reduced the detection of normal CSF Aβ42 to the background levels observed when PSR1 is incubated with TBSTT buffer alone
Normal CSF Aβ40
  detection of normal CSF Aβ40 (background): reduced the detection of normal CSF Aβ40 significantly
